Results as given in US20250262199A1, “TREATMENT OF AUTOIMMUNE SKIN DISEASE” (ASLAN PHARMACEUTICALS PTE LTD, priority 2022, published 2025).

Columns and labels:
Type in all cases: in vivo
[1] = system: PMEL T cells; test: Flow cytometry of PMEL T cell counts in tissues of vitiligo mouse model
[2] = system: Alopecia areata mouse model (C3H/HeJ mice); test: Hair coverage in Alopecia areata mouse model (C3H/HeJ skin graft); conditions: 150 or 300 mg/kg/day once daily oral gavage, week 8 time point (10 weeks after engraftment), vs vehicle; interim data; FIG. 3
Method: The C3H/HeJ mouse strain is known to spontaneously develop alopecia (AA) at a low frequency over a prolonged time frame. Transplantation of AA-affected skin from a C3H/HeJ mouse to unaffected C3H/HeJ recipients will induce the development of AA in nearly 100% of recipients over 4-8 weeks. Accordingly, to produce the AA mouse model, AA-affected C3H/HeJ skin was grafted onto groups of unaffected C3H/HeJ mice. The following treatment groups (n=10 per treatment group) were tested: • 1. Vehicle 0.5% methylcellulose (negative control) • 2. 150 mg/kg/day farudostat • 3. 300 mg/kg/day farudostat Treatments were administered once daily by oral gavage starting 2 weeks after engraftment and concluded after 12 weeks (84 days) of treatment. Photographs were taken at baseline, and every 4 weeks until the end of study Ventral hair growth was scored based on the photographs. Any mouse that had >98% hair coverage was classified as ‘no hair loss’.

[3] = system: vitiligo mouse model (transgenic Krt14-KitL* (SCF) mice); test: Vitiligo scoring in vitiligo mouse model; conditions: oral gavage, 6 weeks (30 treatment days), FIG. 1

COc1cccc(-c2cc(F)c(Nc3ncccc3C(=O)O)c(F)c2)c1 [farudostat, 2-(3,5-difluoro-3′-methoxybiphenyl-4-ylamino) nicotinic acid]
mean PMEL count, 150 mg/kg/day compared to 75 mg/kg/day ([1]; 150 mg/kg/day, oral gavage, FIGS. 2A to 2D): greater reduction in mean PMEL count compared to 75 mg/kg/day | mean PMEL T cell count, dermis ([1]; farudostat 75 and 150 mg/kg/day, oral gavage, end of experiment, FIG. 2B): reduction in mean Pmel T cell count | mean PMEL T cell count, epidermis ([1]; farudostat 75 and 150 mg/kg/day, oral gavage, end of experiment, FIG. 2C): reduction in mean Pmel T cell count | mean PMEL count, spleen ([1]; spleen, compared with anti-IFNγ positive control, FIG. 2D): reduction in mean PMEL count in the spleen that was even greater than that observed for anti-IFNγ | mean % hair coverage [2]: slight improvement in % hair coverage | final mean vitiligo score ([3]; 75 mg/kg/day, vs vehicle): improvement in vitiligo score | final mean vitiligo score ([3]; 150 mg/kg/day, vs vehicle and 75 mg/kg/day group): greater improvement in vitiligo score compared to the 75 mg/kg/day group
